Measured values published in PMC4601023, “Novel anticancer agent, SQAP, binds to focal adhesion kinase and modulates its activity” (Scientific Reports, 2015).

Tests used:
breast CSCs = test system: breast CSCs; set-up: method as in PMID 25187396; details: in combination with radiotherapy; cited from earlier work
SCP-2 (400–547) = biological target: T1, SCP-2 (400–547) (Homo sapiens, UniProt P22307); test: SPR analysis, immobilized His-tagged SCP-2 (400-547); format: binding
T1 construct: DNA encoding SCP-2 (400–547) was amplified; made in house; host or cells: E. coli Rosetta 2 (DE3) pLysS
T1 sequence (P22307 400-547): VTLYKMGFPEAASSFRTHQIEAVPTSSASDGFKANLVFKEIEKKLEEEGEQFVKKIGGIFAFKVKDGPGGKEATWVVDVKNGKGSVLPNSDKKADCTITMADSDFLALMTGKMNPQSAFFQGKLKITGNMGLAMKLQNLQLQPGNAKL
Description: (§1) SPR was utilized as an independent confirmation of the kinetic parameters between SQAP and the putative binding proteins. […] The recombinant proteins were then expressed in Escherichia coli and purified to homogeneity. In addition, full length, His-tagged ADRM1 and GST-tagged HR23B (GST-HR23B) were also used. The proteins were first immobilized on a CM5 sensor chip of the SPR biosensor (Biacore 3000). For GST-HR23B analysis, a GST protein was additionally immobilized and used as a control in order to eliminate possible nonspecific binding of SQAP. SQAP samples at different concentrations were then injected over the proteins immobilized on the sensor chip. As a negative control we used sulfoquynovosylpropanediol (SQP), which lacks the fatty acid moiety of SQAP (Fig. 1). […]
(§2) The binding kinetics of SCP-2, MFE-2, ADRM1, HR23B and FAK with SQAP and SQP were analyzed on a Biacore 3000 instrument (GE Healthcare, Little Chalfont, UK). […] The buffer of purified peptides was exchanged to HBS-P (150 mM NaCl, 0.005% Surfactant P20, 10 mM HEPES-NaOH pH 7.4) using a PD 10 column (GE Healthcare, Little Chalfont, UK) and the concentrations were quantified using DC protein assay kit (Bio-Rad Laboratories, Hercules, CA, USA). […] Kinetic parameters were determined by analyzing the data using BIAevaluation 4.1 software (GE Healthcare, Little Chalfont, UK).

MFE-2 (598–736) = biological target: T2, MFE-2 (598–736) (Homo sapiens, UniProt P51659); test: SPR analysis, immobilized His-tagged MFE-2 (598-736); format: binding
T2 construct: For MFE-2 (598–736) DNA was amplified; made in house; host or cells: E. coli Rosetta 2 (DE3) pLysS
T2 sequence (P51659 598-736): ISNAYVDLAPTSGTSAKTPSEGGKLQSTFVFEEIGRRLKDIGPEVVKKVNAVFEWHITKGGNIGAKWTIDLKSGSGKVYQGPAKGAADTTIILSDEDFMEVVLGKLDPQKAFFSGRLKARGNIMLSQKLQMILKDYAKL
Description: as §1, §2

ADRM1 = biological target: T3, ADRM1 (Homo sapiens, UniProt Q16186); test: SPR analysis, immobilized full length His-ADRM1; format: binding
T3 construct: ADRM1 and HR23B human full length proteins were purchased; His-tag; purchased ATgen (Gyeonggi-do, Korea)
T3 sequence (Q16186 whole entry): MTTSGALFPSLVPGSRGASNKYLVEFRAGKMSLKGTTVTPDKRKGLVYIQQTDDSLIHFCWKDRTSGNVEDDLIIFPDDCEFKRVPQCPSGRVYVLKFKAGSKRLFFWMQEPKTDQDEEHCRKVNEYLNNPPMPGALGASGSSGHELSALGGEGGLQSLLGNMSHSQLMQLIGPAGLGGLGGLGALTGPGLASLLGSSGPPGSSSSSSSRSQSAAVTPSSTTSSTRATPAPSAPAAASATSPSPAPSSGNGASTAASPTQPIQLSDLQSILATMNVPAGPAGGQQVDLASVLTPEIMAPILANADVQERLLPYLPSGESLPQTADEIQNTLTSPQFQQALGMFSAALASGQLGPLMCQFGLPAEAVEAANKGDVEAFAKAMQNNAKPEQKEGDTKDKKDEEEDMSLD
Description: as §1, §2

HR23B = biological target: T4, HR23B (Homo sapiens, UniProt P54727); test: SPR analysis, immobilized GST-HR23B (GST control subtracted); format: binding; details: no kinetic analysis
T4 construct: ADRM1 and HR23B human full length proteins were purchased; purchased Abnova (Taipei, Taiwan)
T4 sequence (P54727 whole entry): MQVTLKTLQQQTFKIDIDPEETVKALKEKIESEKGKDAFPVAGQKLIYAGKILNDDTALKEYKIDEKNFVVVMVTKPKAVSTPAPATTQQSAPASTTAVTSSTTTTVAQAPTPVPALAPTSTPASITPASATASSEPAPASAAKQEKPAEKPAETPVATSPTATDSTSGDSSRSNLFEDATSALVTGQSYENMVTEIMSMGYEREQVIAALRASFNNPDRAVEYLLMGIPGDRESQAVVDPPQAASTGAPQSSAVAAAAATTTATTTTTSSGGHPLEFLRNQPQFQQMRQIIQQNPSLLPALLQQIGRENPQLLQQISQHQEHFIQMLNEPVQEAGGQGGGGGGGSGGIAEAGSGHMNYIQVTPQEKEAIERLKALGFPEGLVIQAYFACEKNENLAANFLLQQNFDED
Description: as §1, §2

FAK (910–1052) = biological target: T5, FAK (910–1052) (Homo sapiens, UniProt Q05397); test: SPR analysis, immobilized His-tagged FAK (910-1052); format: binding
T5 construct: For FAK (910–1052) DNA was amplified; made in house; host or cells: E. coli BL21 (DE3)
T5 sequence (Q05397 910-1052): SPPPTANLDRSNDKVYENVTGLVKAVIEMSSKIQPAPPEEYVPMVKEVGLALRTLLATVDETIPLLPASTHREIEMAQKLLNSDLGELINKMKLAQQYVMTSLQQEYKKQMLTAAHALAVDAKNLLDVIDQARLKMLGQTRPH
Description: as §1, §2

[1] = test system: FAK phosphorylation (Y397, Y925) in A549 cells; test: FAK phosphorylation level in A549, Western blotting; format: cell-based, human; details: A549, fibronectin 10 μg/mL, 1 h treatment
Protocol: A549 cells were incubated in a serum-free medium for 48 h in 60 mm dishes (IWAKI, Tokyo, Japan). Then 10 μM SQAP, SQMG or SQP was added and incubated for 30 min followed by addition of fibronectin 10 μg/mL (Sigma, St. Louis, MI, USA) and incubation for another 30 min. FAK phosphorylation level was analyzed by Western blotting as described in the next section.
(§3) Cells were harvested and solubilized in RIPA buffer (20 mM Tris-HCl, pH 7.5, 1% Sodium deoxycholate, 150 mM NaCl, 5 mM EDTA, 1% Triton X-100, 0.1% SDS, 0.1%, 1 mM PMSF, 1 mM vanadate and 1 μg/mL leupeptin). Protein quantification was determined using the DC protein assay kit (Bio-Rad, Hercules, CA, USA). A total of 15 μg of each protein sample were separated by SDS–PAGE gels and blotted onto polyvinylidene difluoride membranes (Merck, Kenilworth, NJ, US). After blocking for 1 h with Blocking-One (Nacalai Tesque, Kyoto, Japan), proteins were detected by incubating the membranes with the primary antibody at 4 °C overnight (anti-Y397 2:2000, anti-Y925 5:2000 and anti-FAK 0.5:2000) followed by incubation with horseradish peroxidase-conjugated secondary antibodies at room temperature for 1 h (anti-mouse 0.5:2000 and anti-rabbit 0.4:2000).

[2] = test system: FAK phosphorylation (Y397, Y925) in HUVEC cells; test: FAK phosphorylation level in HUVEC, Western blotting; format: cell-based, human; details: VEGF 50 ng/mL, 1 h
Protocol: HUVEC cells were incubated for 20 h in serum-free medium in 60 mm dishes. SQAP, SQMG or SQP was added and incubated for 30 min followed by addition of 50 ng/mL VEGF (RD systems, Minneapolis, MN. USA) and incubation for another 30 min. FAK phosphorylation level was analyzed by Western blotting as described in the next section.
as §3

[3] = test system: Akt phosphorylation at S473 in HUVEC; test: Akt phosphorylation in HUVEC, Western blotting; format: cell-based, human; details: treated for 21 h, 10 µM
Description: Furthermore, we looked at FAK signaling pathway to validate our results. Paxillin binds to FAK 919–938 residues which is a sequence contained within the region where SQAP is predicted to bind. Binding between paxillin and FAK results in paxillin phosphorylation at Y118[35][36]. Thus, we examined paxillin phosphorylation. […] Additionally, we studied Akt phosphorylation at S473 on account of FAK is a known factor in control of Akt activity. We observed that Akt phosphorylation was diminished when treated with SQAP or SQMG for 21 h (see Supplementary Fig. S3).
as §3, with “0.4:2000). […]” for “0.4:2000).”

[4] = test system: lung and colon adenocarcinomas; set-up: method as in PMID 9020475, PMID 21115885; details: transplanted in nude mice, in combination with X-irradiation; cited from earlier work
VEGF = VEGF (Homo sapiens, UniProt P15692); details: cited from earlier work
VEGF, sequence (P15692 whole entry, species assumed): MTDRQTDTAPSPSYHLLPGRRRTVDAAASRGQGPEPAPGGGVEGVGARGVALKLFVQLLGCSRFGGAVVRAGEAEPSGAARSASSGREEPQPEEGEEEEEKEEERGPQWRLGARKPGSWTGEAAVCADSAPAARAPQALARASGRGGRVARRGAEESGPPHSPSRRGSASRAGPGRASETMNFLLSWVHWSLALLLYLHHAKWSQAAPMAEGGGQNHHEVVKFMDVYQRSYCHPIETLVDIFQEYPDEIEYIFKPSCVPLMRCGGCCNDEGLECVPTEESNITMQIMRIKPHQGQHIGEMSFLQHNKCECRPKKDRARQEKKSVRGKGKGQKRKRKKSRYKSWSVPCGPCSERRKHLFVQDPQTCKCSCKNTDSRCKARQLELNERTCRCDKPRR

TSP-1 gene = test system: TSP-1 gene; set-up: method as in PMID 22587436; details: diverse cell lines including A549 and HUVEC; cited from earlier work
Tie2 gene = test system: Tie2 gene; set-up: method as in PMID 18380795; details: cited from earlier work
[5] = test system: TSP-1 expression in endothelial cells; set-up: method as in PMID 14739779; details: cited from earlier work

For `CS(=O)(=O)c1cccc(CNc2nc(Nc3ccc4c(c3)CCC(=O)N4)ncc2C(F)(F)F)c1` [PF573228], the “formation of clumps of breast CSCs” value (breast CSCs) is given as “block the formation of clumps”.

With `O=S(=O)(O)C[C@H]1O[C@H](OCCCO)[C@H](O)[C@@H](O)[C@@H]1O` [SQP, sulfoquynovosylpropanediol, reference compound] the “binding to SCP-2 (SPR response)” value (SCP-2 (400–547)) was “neither bound”, the “binding to MFE-2 (SPR response)” value (MFE-2 (598–736)) was “neither bound” and the “binding to ADRM1 (SPR response)” value (ADRM1) was “neither bound”. For the same compound, the “binding to HR23B (SPR response)” value (HR23B) was “neither bound”, the “binding to FAK (SPR response)” value (FAK (910–1052)) was “neither bound” and the “phosphorylation of FAK at Y397 and Y925” value [1] was “failed to inhibit”.

In the case of “sulfoquinovosyl monoacylglyceride [SQMG]”, the “phosphorylation level of FAK at Y397 and at Y925 after VEGF stimulation” value [2] is listed as “can inhibit”, the “Akt phosphorylation at S473” value [3] is listed as “diminished” and the tumor growth [4] is listed as “significantly inhibited”. The “binding to VEGF” value (VEGF) was “bind to VEGF”, the TSP-1 gene expression (TSP-1 gene) was “upregulation” and the Tie2 gene expression (Tie2 gene) was “downregulation”.

For `O=c1cc(N2CCOCC2)oc2c(-c3ccccc3)cccc12` [LY 294002], the TSP-1 expression levels [5] is given as “upregulated”.
